Test results from patent US7175829B2, “Contrast-enhanced diagnostic imaging method for monitoring interventional therapies” (Epix Pharmaceuticals, Inc., priority 1997, dated 2007).

Experiments:
[1] = biological target: T1, human serum albumin (HSA) (Homo sapiens, UniProt P02768); experiment: Relaxivity R1 at 20 MHz during thermal denaturation of 4.5% HSA solutions; assay type: physicochemical; details: for R1: 20 MHz, 4.5% HSA solution; for R1 / net loss in R1 after denatured samples cooled to physiological temperature / loss in observed R1 during denaturation of the HSA: 0.3 mM Gd-DTPA, 0.1 mM MS-325; for net loss in R1 after denatured samples cooled to physiological temperature: denatured samples cooled to 37° C.; for loss in observed R1 during denaturation of the HSA: from immediately before denaturation (56.2° C.) to immediately after denaturation (85° C.)
Protocol: (§1) In these examples, the longitudinal relaxivities (R1, mM^−1 sec^−1) were monitored and obtained at 20 MHz by determining the relaxation rate (1/T1) of water protons in phosphate buffered saline (PBS, 150 mM NaCl, 10 mM phosphate, pH=7.4), in PBS solutions containing 4.5 wt % HSA, or in gels containing 4.5 wt % HSA and 1% Agar. The dependence of temperature on relaxivity (R1) was observed by varying the temperature of the samples with a circulating water bath and monitoring sample temperature with a thermocouple.
(§2) The following three samples were prepared in solutions of 4.5% HSA: (1) a control sample without a contrast agent; (2) a comparative sample with Gd-DTPA; and (3) a sample with MS-325. The samples with Gd-DTPA and MS-325 were prepared by adding an aqueous formulation (pH=7) comprising either Gd-DTPA or MS-325 to the 4.5% HSA solution.
The three samples were then used to monitor the thermal denaturation of the 4.5% HSA solutions. […] Each sample was then removed from the NMR and heated at 85° C. for 15 minutes to induce thermal denaturation of the HSA. Subsequently, the sample was returned to the NMR and T1 data was collected at this higher temperature.

[2] = biological target: T1, human serum albumin (HSA); experiment: T1-weighted MRI at 1.0 Tesla of agar phantoms containing 4.5% HSA during thermal denaturation; assay type: physicochemical; details: for % Loss ROI: 1% agar, 4.5% HSA; for % Loss ROI / loss in signal intensity after denaturation and cooling / loss of signal intensity on thermal denaturation: 0.3 mM Gd-DTPA, 0.1 mM MS-325; for loss in signal intensity after denaturation and cooling: denatured phantoms cooled to 37° C.; for loss of signal intensity on thermal denaturation: phantoms heated above 50–60° C.
Protocol: The following samples were prepared in 1% agar gels containing 4.5% HSA: (1) a control sample without a contrast agent; (2) a comparative sample with Gd-DTPA; and (3) a sample with MS-325. The contrast agents were added in an amount sufficient such that the concentration of Gd-DTPA and MS-325 were 0.3 mM Gd-DTPA and 0.1 mM MS-325, respectively. Such agar gels containing 4.5% HSA are referred to as “phantoms”.
Initial T1-weighted MRI scans (FISP-3D, TR=15, TE=4, alpha=30) at 1.0 Tesla of the agar phantoms were then obtained at a temperature of about 25° C.
The phantoms were then heated in a circulating water bath with additional T1-weighted MRI scans obtained over time.

[3] = biological target: T1, human serum albumin (HSA); experiment: Relaxivity R1 at 20 MHz during ethanol denaturation of 4.5% HSA solutions; assay type: physicochemical; details: for decrease/change in observed relaxivity during ethanol ablation: 4.5% HSA solutions, 0.31 mM Gd-DTPA, 0.08 mM MS-325, 37° C.; for R1 0.31 mM Gd-DTPA / R1 0.08 mM MS-325: 4.5% HSA, 37° C.
Protocol: as §1, §2
Absolute ethanol was then titrated to each of the samples. T1 data (and thus R1 data (=1/T1)) was collected at 20 MHz and 37° C. after each addition of ethanol.

[4] = Rat plasma pharmacokinetic experiment (blood retention, AUC-conc.); assay type: in vivo; details: two rats, tail vein injection of 0.1 mmol/kg Gd^153-labeled Gd-DTPA
Source text: The incorporation into a contrast agent of this invention of a BHEM results in prolonged blood retention of the agent. […] Blood retention (as measured by AUC-conc) can be evaluated experimentally by administration of a contrast agent to rats, rabbits, or higher mammals. It has been observed that blood half-life extension is greater in rabbits and higher mammals than in rats. In this application, blood half-life data, as measured by AUC-conc., represents experimentation in rats.
For example, the average plasma concentrations observed after tail vein injection of 0.1 mmol/kg of Gd^153-labeled Gd-DTPA in two rats is shown in FIG. 1.

[5] = tested on: alpha 1-acid glycoprotein (AAG); details: binding to alpha 1-acid glycoprotein; cited from earlier work
[6] = 85.0 °C, after heating at 85° C. for 15 minutes (HSA denatured)
[7] = 120 min, 35.5 °C (cooled after denaturation), 1.0 Tesla

T1 sequence (P02768 25-609): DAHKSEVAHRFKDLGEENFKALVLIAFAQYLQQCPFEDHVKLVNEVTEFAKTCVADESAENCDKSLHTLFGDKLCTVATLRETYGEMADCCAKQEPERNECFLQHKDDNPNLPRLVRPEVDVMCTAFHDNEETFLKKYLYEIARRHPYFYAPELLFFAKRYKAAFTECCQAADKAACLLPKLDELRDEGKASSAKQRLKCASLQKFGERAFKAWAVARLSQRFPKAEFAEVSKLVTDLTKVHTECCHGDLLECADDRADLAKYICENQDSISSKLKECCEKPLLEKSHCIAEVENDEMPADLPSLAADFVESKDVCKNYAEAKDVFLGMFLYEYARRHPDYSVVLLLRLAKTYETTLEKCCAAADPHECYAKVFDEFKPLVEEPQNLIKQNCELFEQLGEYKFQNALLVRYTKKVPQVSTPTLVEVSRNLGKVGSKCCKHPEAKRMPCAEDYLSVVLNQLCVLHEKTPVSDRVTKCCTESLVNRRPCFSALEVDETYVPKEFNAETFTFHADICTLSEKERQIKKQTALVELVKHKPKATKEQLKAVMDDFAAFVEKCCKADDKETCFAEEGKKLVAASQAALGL

## O=C([O-])CN(CCN(CC(=O)[O-])CC(=O)O)CCN(CC(=O)[O-])CC(=O)O.[Gd+3] [Gd-DTPA, reference compound]
[1]; 7.3 °C
  R1: 9.4556 mM⁻¹ s⁻¹
[1]; 11.7 °C
  R1: 8.8125 mM⁻¹ s⁻¹
[1]; 16.2 °C
  R1: 8.0690 mM⁻¹ s⁻¹
[1]; 20.6 °C
  R1: 7.4182 mM⁻¹ s⁻¹
[1]; 25.0 °C
  R1: 6.7426 mM⁻¹ s⁻¹
[1]; 29.5 °C
  R1: 6.2117 mM⁻¹ s⁻¹
[1]; 33.9 °C
  R1: 5.7089 mM⁻¹ s⁻¹
[1]; 38.4 °C
  R1: 5.2984 mM⁻¹ s⁻¹
[1]; 42.8 °C
  R1: 4.8917 mM⁻¹ s⁻¹
[1]; 47.3 °C
  R1: 4.5992 mM⁻¹ s⁻¹
[1]; 51.7 °C
  R1: 4.3083 mM⁻¹ s⁻¹
[1]; 56.2 °C
  R1: 4.0592 mM⁻¹ s⁻¹
[1]; 60.6 °C
  R1: 3.8806 mM⁻¹ s⁻¹
[1]; [6]
  R1: 4.2102 mM⁻¹ s⁻¹
[1]
  net loss in R1 after denatured samples cooled to physiological temperature: 0.5 mM^−1 sec^−1
  loss in observed R1 during denaturation of the HSA: 0.1 mM⁻¹ s⁻¹
[1]; inferred from R1 change during thermal denaturation
  binding to native or denatured HSA: does not bind to either native or denatured HSA
[2]; 0 min, 25.3 °C, 1.0 Tesla
  % Loss ROI: −0.2456%
[2]; 10 min, 29.6 °C, 1.0 Tesla
  % Loss ROI: −5.1875%
[2]; 20 min, 38.3 °C, 1.0 Tesla
  % Loss ROI: −12.806%
[2]; 30 min, 45.0 °C, 1.0 Tesla
  % Loss ROI: −18.985%
[2]; 40 min, 53.0 °C, 1.0 Tesla
  % Loss ROI: −30.964%
[2]; 50 min, 64.7 °C, 1.0 Tesla
  % Loss ROI: −43.833%
[2]; 60 min, 72.8 °C, 1.0 Tesla
  % Loss ROI: −46.086%
[2]; 70 min, 87.1 °C, 1.0 Tesla
  % Loss ROI: −47.529%
[2]; [7]
  % Loss ROI: −10.190%
[2]
  loss in signal intensity after denaturation and cooling: 10%
  loss of signal intensity on thermal denaturation: only a modest change
[3]
  decrease/change in observed relaxivity during ethanol ablation: 0.3 mM⁻¹ s⁻¹
[3]; ethanol 0.0 %
  R1 0.31 mM Gd-DTPA: 4.1737 mM⁻¹ s⁻¹
[3]; ethanol 16.1 %
  R1 0.31 mM Gd-DTPA: 4.7191 mM⁻¹ s⁻¹
[3]; ethanol 27.8 %
  R1 0.31 mM Gd-DTPA: 5.0021 mM⁻¹ s⁻¹
[3]; ethanol 36.6 %
  R1 0.31 mM Gd-DTPA: 4.9347 mM⁻¹ s⁻¹
[3]; ethanol 43.5 %
  R1 0.31 mM Gd-DTPA: 4.7997 mM⁻¹ s⁻¹
[3]; ethanol 49.0 %
  R1 0.31 mM Gd-DTPA: 4.4623 mM⁻¹ s⁻¹
[4]
  AUC-conc. from 0 to 10 minutes: 3.5 mM·min

## CN(C)CCCN1c2ccccc2Sc2ccc(Cl)cc21 [chloropromazine]
[5]
  Ka: 35.4×10^5

## O=C(O)CN(CCN(CC(=O)O)CC(COP(=O)(O)OC1CCC(c2ccccc2)(c2ccccc2)CC1)N(CC(=O)O)CC(=O)O)CC(=O)O (stereo not drawn) [MS-325]
[1]; 7.3 °C
  R1: 31.2 mM⁻¹ s⁻¹
[1]; 11.7 °C
  R1: 33.4 mM⁻¹ s⁻¹
[1]; 16.2 °C
  R1: 36.0 mM⁻¹ s⁻¹
[1]; 20.6 °C
  R1: 38.6 mM⁻¹ s⁻¹
[1]; 25.0 °C
  R1: 40.6 mM⁻¹ s⁻¹
[1]; 29.5 °C
  R1: 42.0 mM⁻¹ s⁻¹
[1]; 33.9 °C
  R1: 42.8 mM⁻¹ s⁻¹
[1]; 38.4 °C
  R1: 42.4 mM⁻¹ s⁻¹
[1]; 42.8 °C
  R1: 42.3 mM⁻¹ s⁻¹
[1]; 47.3 °C
  R1: 41.3 mM⁻¹ s⁻¹
[1]; 51.7 °C
  R1: 39.5 mM⁻¹ s⁻¹
[1]; 56.2 °C
  R1: 37.5 mM⁻¹ s⁻¹
[1]; 60.6 °C
  R1: 33.3 mM⁻¹ s⁻¹
[1]; [6]
  R1: 10.8 mM⁻¹ s⁻¹
[1]
  net loss in R1 after denatured samples cooled to physiological temperature: 25 mM^−1 sec^−1
  loss in observed R1 during denaturation of the HSA: 26.7 mM⁻¹ s⁻¹
[2]; 0 min, 25.3 °C, 1.0 Tesla
  % Loss ROI: 0.0000%
[2]; 10 min, 29.6 °C, 1.0 Tesla
  % Loss ROI: −4.4755%
[2]; 20 min, 38.3 °C, 1.0 Tesla
  % Loss ROI: −6.4144%
[2]; 30 min, 45.0 °C, 1.0 Tesla
  % Loss ROI: −11.241%
[2]; 40 min, 53.0 °C, 1.0 Tesla
  % Loss ROI: −26.153%
[2]; 50 min, 64.7 °C, 1.0 Tesla
  % Loss ROI: −49.262%
[2]; 60 min, 72.8 °C, 1.0 Tesla
  % Loss ROI: −69.499%
[2]; 70 min, 87.1 °C, 1.0 Tesla
  % Loss ROI: −76.469%
[2]; [7]
  % Loss ROI: −31.869%
[2]; about 25° C., 1.0 Tesla, versus phantoms with Gd-DTPA or 4.5% HSA alone
  brightness of phantoms in initial T1-weighted MRI scans: brighter
[2]
  loss in signal intensity after denaturation and cooling: 32%
  loss of signal intensity on thermal denaturation: 76%
[3]
  decrease/change in observed relaxivity during ethanol ablation: 33 mM⁻¹ s⁻¹
[3]; ethanol 0.0 %
  R1 0.08 mM MS-325: 42.216 mM⁻¹ s⁻¹
[3]; ethanol 0.9 %
  R1 0.08 mM MS-325: 40.848 mM⁻¹ s⁻¹
[3]; ethanol 1.9 %
  R1 0.08 mM MS-325: 39.541 mM⁻¹ s⁻¹
[3]; ethanol 2.8 %
  R1 0.08 mM MS-325: 38.423 mM⁻¹ s⁻¹
[3]; ethanol 3.7 %
  R1 0.08 mM MS-325: 37.064 mM⁻¹ s⁻¹
[3]; ethanol 4.5 %
  R1 0.08 mM MS-325: 36.375 mM⁻¹ s⁻¹
[3]; ethanol 5.4 %
  R1 0.08 mM MS-325: 35.234 mM⁻¹ s⁻¹
[3]; ethanol 6.2 %
  R1 0.08 mM MS-325: 34.576 mM⁻¹ s⁻¹
[3]; ethanol 7.1 %
  R1 0.08 mM MS-325: 33.895 mM⁻¹ s⁻¹
[3]; ethanol 7.9 %
  R1 0.08 mM MS-325: 33.099 mM⁻¹ s⁻¹
[3]; ethanol 8.7 %
  R1 0.08 mM MS-325: 32.224 mM⁻¹ s⁻¹
[3]; ethanol 10.2 %
  R1 0.08 mM MS-325: 31.689 mM⁻¹ s⁻¹
[3]; ethanol 11.7 %
  R1 0.08 mM MS-325: 30.403 mM⁻¹ s⁻¹
[3]; ethanol 16.4 %
  R1 0.08 mM MS-325: 26.939 mM⁻¹ s⁻¹
[3]; ethanol 22.8 %
  R1 0.08 mM MS-325: 21.456 mM⁻¹ s⁻¹
[3]; ethanol 28.3 %
  R1 0.08 mM MS-325: 17.428 mM⁻¹ s⁻¹
[3]; ethanol 33.1 %
  R1 0.08 mM MS-325: 14.082 mM⁻¹ s⁻¹
[3]; ethanol 37.3 %
  R1 0.08 mM MS-325: 11.187 mM⁻¹ s⁻¹
[3]; ethanol 41.0 %
  R1 0.08 mM MS-325: 9.6943 mM⁻¹ s⁻¹
[3]; ethanol 44.2 %
  R1 0.08 mM MS-325: 8.9506 mM⁻¹ s⁻¹
[3]; ethanol 47.2 %
  R1 0.08 mM MS-325: 8.7970 mM⁻¹ s⁻¹
